This is an account of results in paper PMC7757987, “Antitumor Activity and Mechanism Study of Riluzole and Its Derivatives” (Iranian Journal of Pharmaceutical Research : IJPR, 2020).

In series [1] the test system is HeLa, HepG2, SP2/0 and MCF-7. Kind of series: CCK-8 anti-proliferative assay, all examined cancer cell lines. It counts as cell-based. The conditions noted are these: HepG2, SP2/0, MCF-7, CCK-8, 48 h. On the procedure: MCF-7 (breast cancer cell line) was cultured in RPMI-1640 medium. HeLa (human cervical cancer cell line), HepG2 (human liver cancer cell line), SP2/0 (mouse myeloma cell line), and LO2 (human normal liver cell line) were cultured in DMEM medium. Each medium was supplemented with 10% fetal bovine serum, 1% L-glutamine and 1% penicillin/streptomycin solution. The cell lines were kept in the incubator at 37 ℃ in a humidified atmosphere (90% RH) containing 5% CO2. […] The cell lines SP2/0 and MCF-7 were obtained from Laboratory Center of Shaanxi Province People’s Hospital.
(§1) 2×10^3 cells per well were planted into 96-well plates in 100 μL growth medium and incubated for 24 h. Then, the cells were exposed to each compound in growth medium (DMSO< 0.5%) at five different concentrations (1.23, 3.70, 11.11, 33.33, and 100 μmol/L) for 48 h. The mixture was incubated at 37 ℃ under a humidified 5% CO2 atmosphere. After incubation, 10 μL CCK-8 solution was added to each well and the cells were further incubated for 2 h at 37 ℃ according to the CCK-8 Technical Manual. Then, the OD value for each well was read at wavelength 450 nm to determine the cell viability on a microplate reader (Synergy HT, USA). […] The independent experiment was repeated at least three times. The percentage of growth inhibition was calculated as follows according to reference ([18]),
(§2) % of growth inhibition = [1 - absorbance of treated cells/absorbance of untreated cells] × 100%

The nature of series [2]: CCK-8 cytotoxicity assay, normal LO2 cells. It counts as cell-based, human. The conditions noted are these: human, LO2 normal liver cells; CCK-8, 48 h, normal liver cells; read-out: Cytotoxicity (IC50) L02. On the procedure: (§3) HeLa (human cervical cancer cell line), HepG2 (human liver cancer cell line), SP2/0 (mouse myeloma cell line), and LO2 (human normal liver cell line) were cultured in DMEM medium. Each medium was supplemented with 10% fetal bovine serum, 1% L-glutamine and 1% penicillin/streptomycin solution. The cell lines were kept in the incubator at 37 ℃ in a humidified atmosphere (90% RH) containing 5% CO2. […] The cell lines SP2/0 and MCF-7 were obtained from Laboratory Center of Shaanxi Province People’s Hospital.
as §1, with “Then, the cells were exposed to each compound in growth medium (DMSO< 0.5%) at five different concentrations (1.23, 3.70, 11.11, 33.33, and 100 μmol/L) for 48 h.” left out
as §2

Series [3] has as its system HepG2 (human liver cancer cell line). Briefly: CCK-8 anti-proliferative assay, HepG2. To be noted: for IC50: Homo sapiens, HepG2, CCK-8, 48 h, read-out: Cytotoxicity (IC50) HepG2; for Selectivity index (SI) HepG2: IC50 LO2 / IC50 HepG2. It is filed as cell-based. On the procedure: as §3
as §1, with “Then, the cells were exposed to each compound in growth medium (DMSO< 0.5%) at five different concentrations (1.23, 3.70, 11.11, 33.33, and 100 μmol/L) for 48 h.” left out
as §2

The test system of series [4] is SP2/0 (mouse myeloma cell line). Briefly: CCK-8 anti-proliferative assay, SP2/0. It counts as cell-based. The conditions noted are these: for IC50: Mus musculus, CCK-8, 48 h, read-out: Cytotoxicity (IC50) SP2/0; for Selectivity index (SI) SP2/0: IC50 LO2 / IC50 SP2/0. On the procedure: as §3
as §1, with “Then, the cells were exposed to each compound in growth medium (DMSO< 0.5%) at five different concentrations (1.23, 3.70, 11.11, 33.33, and 100 μmol/L) for 48 h.” left out
as §2

Series [5] relates to MCF-7 (human breast cancer cell line). Kind of series: CCK-8 anti-proliferative assay, MCF-7. To be noted: for IC50: Homo sapiens, MCF7, CCK-8, 48 h; for Selectivity index (SI) MCF-7: IC50 LO2 / IC50 MCF-7. It counts as cell-based. On the procedure:
as §3
as §1, with “Then, the cells were exposed to each compound in growth medium (DMSO< 0.5%) at five different concentrations (1.23, 3.70, 11.11, 33.33, and 100 μmol/L) for 48 h.” left out
as §2

Series [6] concerns HeLa (human cervical cancer cell line). Kind of series: CCK-8 anti-proliferative assay, HeLa. It is filed as cell-based. The conditions noted are these: for IC50: Homo sapiens, HeLa, CCK-8, 48 h, read-out: Cytotoxicity (IC50) HeLa; for Selectivity index (SI) HeLa: IC50 LO2 / IC50 HeLa. The procedure: as §3
as §1, with “Then, the cells were exposed to each compound in growth medium (DMSO< 0.5%) at five different concentrations (1.23, 3.70, 11.11, 33.33, and 100 μmol/L) for 48 h.” left out
as §2

Setting [7] is: read-out: Cytotoxicity (IC50) MCF-7.

Where two headings read alike, the source gives them in different places.

In turn, `FC(F)(F)Oc1ccc2nc(Cl)sc2c1` [Compound 3, 2-chloro-6-trifluoromethoxy-benzothiazole] showed a melting point of 38 to 39 °C. The IC50 in series [1] was greater than 100 µM. For the same compound, in series [2], the IC50 at 48 h was 100 ± 6.07 µM. Also, in series [3], the IC50 is greater than 100 µM. The IC50 in series [4] was greater than 100 µM. Moreover, the IC50 in series [5] (setting [7]) was greater than 100 µM. In series [6], the IC50 is greater than 100 µM.
In turn, `CCCNc1nc2ccc(OC(F)(F)F)cc2s1` [Compound 4b] displayed a melting point of 88 to 89 °C. Also, the IC50 at 48 h in series [2] is 32.2 ± 3.03 µM. Besides, in series [3], the IC50 turned out to be 18 ± 0.88 µM and the “Selectivity index (SI) HepG2” value came out at 1.79. For the same compound, in series [4], the “Selectivity index (SI) SP2/0” value amounted to 0.69 and the IC50 worked out at 46.4 ± 3.62 µM. The IC50 in series [5] (setting [7]) turned out to be 12.9 ± 0.69 µM. For the same compound, the “Selectivity index (SI) MCF-7” value in series [5] is reported as 2.50. For the same compound, in series [6], the IC50 was found to be 30.1 ± 1.28 µM and the “Selectivity index (SI) HeLa” value came to 1.07.
`CCCCNc1nc2ccc(OC(F)(F)F)cc2s1` [Compound 4c] registered a melting point of 76 to 78 °C. In addition, the IC50 at 48 h in series [2] turned out to be 25.6 ± 3.12 µM. Further, the IC50 in series [3] was greater than 100 µM. Also, in series [4], the “Selectivity index (SI) SP2/0” value turned out to be 0.43 and the IC50 came to 59 ± 3.32 µM. Moreover, the IC50 in series [5] (setting [7]) stood at 21.9 ± 0.97 µM. In addition, in series [5], the “Selectivity index (SI) MCF-7” value was 1.17. For the same compound, in series [6], the IC50 was found to be 16.7 ± 0.94 µM and the “Selectivity index (SI) HeLa” value was 1.53.
In the case of `CCN(CC)c1nc2ccc(OC(F)(F)F)cc2s1` [Compound 4d, (N-diaethylamine)-6-trifluoromethoxy-benzothiazole], the melting point lay within 38 to 39 °C. For the same compound, the IC50 at 48 h in series [2] was greater than 100 µM. In addition, in series [3], the IC50 was greater than 100 µM. The IC50 in series [4] stood at 48.5 ± 3.41 µM. Also, in series [5] (setting [7]), the IC50 amounted to 46.6 ± 2.77 µM. The IC50 in series [6] was greater than 100 µM.
With `FC(F)(F)Oc1ccc2nc(NC3CCCCC3)sc2c1` [Compound 4e], the melting point fell in the range of 96 to 97 °C. The IC50 at 48 h in series [2] came out at 33.8 ± 2.4 µM. In series [3], the IC50 was found to be 20.2 ± 0.93 µM and the “Selectivity index (SI) HepG2” value turned out to be 1.67. In addition, in series [4], the “Selectivity index (SI) SP2/0” value turned out to be 1.91 and the IC50 came to 17.7 ± 0.81 µM. The IC50 in series [5] (setting [7]) was 20.5 ± 1.09 µM. The “Selectivity index (SI) MCF-7” value in series [5] was found to be 1.65. Besides, in series [6], the IC50 was 20.9 ± 0.98 µM and the “Selectivity index (SI) HeLa” value is reported as 1.62.
Consider `FC(F)(F)Oc1ccc2nc(N3CCCC3)sc2c1` [Compound 4f, (N-pyrrolidine)-6-trifluoromethoxy-benzothiazole], for which the melting point was 129 to 130 °C. Besides, in series [1], the IC50 was greater than 100 µM. In series [2], the IC50 at 48 h turned out to be 65.2 ± 3.53 µM. Also, in series [3], the IC50 was greater than 100 µM. Moreover, the IC50 in series [4] is greater than 100 µM. In addition, the IC50 in series [5] (setting [7]) was greater than 100 µM. The IC50 in series [6] is greater than 100 µM.
For `FC(F)(F)Oc1ccc2nc(N3CCCCC3)sc2c1` [Compound 4g, 2-(N-piperidine)-6-trifluoromethoxy-benzothiazole], the melting point lay in the range of 74 to 75 °C. The IC50 at 48 h in series [2] was greater than 100 µM. Moreover, the IC50 in series [3] was greater than 100 µM. For the same compound, in series [4], the “Selectivity index (SI) SP2/0” value was determined as 4.12 and the IC50 amounted to 32.6 ± 1.44 µM. The IC50 in series [5] (setting [7]) was 25.8 ± 1.21 µM. Besides, the “Selectivity index (SI) MCF-7” value in series [5] turned out to be 5.20. Moreover, in series [6], the IC50 is greater than 100 µM.
Consider `FC(F)(F)Oc1ccc2nc(N3CCOCC3)sc2c1` [Compound 4h, (N-morpholine)-6-trifluoromethoxy-benzothiazole], for which the melting point fell in the range of 103 to 105 °C. The IC50 in series [1] was greater than 100 µM. Besides, the IC50 at 48 h in series [2] was greater than 100 µM. Moreover, the IC50 in series [3] was greater than 100 µM. Also, in series [4], the IC50 turned out to be 98.7 ± 3.28 µM. In addition, in series [5] (setting [7]), the IC50 is greater than 100 µM. Besides, the IC50 in series [6] was greater than 100 µM.
For the compound `CC1CCN(c2nc3ccc(OC(F)(F)F)cc3s2)CC1` [Compound 4i, 2-(N-4-methyl-1-piperidinyl)-6-trifluoromethoxy-benzothiazole], the melting point was in the range of 77 to 78 °C. For the same compound, the IC50 at 48 h in series [2] was greater than 100 µM. In series [3], the IC50 was greater than 100 µM. In addition, in series [4], the “Selectivity index (SI) SP2/0” value is listed as 9.68 and the IC50 turned out to be 11.5 ± 0.85 µM. The IC50 in series [5] (setting [7]) was greater than 100 µM. Also, in series [5] (read-out: IC50 in MCF-7 cells), the IC50 turned out to be 11.5 µM. Further, the IC50 in series [6] is greater than 100 µM.
In the case of `CNC(=O)c1cc(Oc2ccc(NC(=O)Nc3ccc(Cl)c(C(F)(F)F)c3)cc2)ccn1` [Sorafenib, reference compound], the IC50 at 48 h in series [2] turned out to be 11.9 ± 0.32 µM. The IC50 was found to be 12 ± 2.12 µM in series [3], 4.25 ± 0.75 µM in series [4], 7.66 ± 0.73 µM in series [5] (setting [7]) and 5.16 ± 0.62 µM in series [6].
